This is an account of results in patent publication US9095599B2, “O-(substituted benzyl) phosphoramidate compounds and therapeutic use” (Nanjing Molecular Research, Inc., priority 2011, dated 2015).

By Tmax is commonly meant the time at which the peak concentration occurs. A word on the AUC(0-inf): it is total exposure, with the tail of the curve extrapolated. A higher AUC(0-inf) goes with high exposure. As usually defined, the CC50 is the concentration giving 50% cytotoxicity. A word on the EC50: it is the midpoint of the concentration-response curve.

The nature of data set [1]: Rat plasma and liver PK after iv administration. Type of data set: in vivo, SD rats. The method, then: Pharmacokinetic (PK) study of prodrug FDURP (DGX-102) and parent drug (FDUR) in rats was completed according to following procedure.
SD rats (250-300 g, male, N=15) were used for each compound, purchased from SLAC Laboratory Animal Co. LTD Qualification No.: SCXK (SH) 2007-0005, 13264. Compounds FDUR and FDURP were each dosed via tail vein injection. The animal was restrained manually at designated time points. Approximately 500 μL of blood/time point was collected into K2EDTA tube via cardiac puncture for terminal bleeding under anesthesia with Isoflurane. FDUR and FDURP blood samples were put on ice after collection and then centrifuged to obtain plasma sample (2000 g, 5 min, 4° C.) within 15 minutes of sampling. The blood samples were then centrifuged to obtain plasma sample (2000 g, 5 min, 4° C.). All the plasma samples were immediately quenched for protein precipitation. Liver samples of each compound were removed at designated time points by first sacrificing the animal by CO2 inhalation, then perfusing the liver with ice cold saline and removing the left middle liver lobe, which was then snap frozen in dry ice. Liver samples were stored at approximately −80° C. until analysis. The liver homogenate was then processed for further analysis by LC/MS-MS. Plasma and liver samples were stored at approximately −80° C. until analysis.
Concentrations of prodrugs, parent drug and possible metabolites in both plasma and liver including FDURMP, FDUR, FDUR-MP and 5FU were determined by LC/MS-MS.

Data set [2] in a line: Cytotoxicity assay (LTR-luc luciferase reporter). Type of data set: cell-based. Conditions: human; Huh-7 LTR-luc cells. The source says:
(§1) The anti-HCV activity and toxicity of the exemplary compounds can be tested in two biological assays—a cell-based HCV replicon assay and cytotoxicity assay (WO 2007/027248).
A Huh-7 cell line carrying a luciferase reporter gene (driven by a HIV LTR promoter) stably integrated into the chromosome was used to analyze the cytotoxic effect of the selected compounds. This cell line (LTR-luc) was maintained in DMEM medium with 10% FBS. Design of the cytotoxicity assay was similar to that of the HCV replicon assay. Reduction of luciferase activity in the treated cells correlated with the cytotoxic effect of the test compound and was used to calculate the CC50 value (concentration that inhibited cell growth by 50%).
(§2) The biological activities using subgenomic genotype 1a replicon and cytotoxicity of the selected compounds are summarized in Table 2.

In data set [3] the test system is HCV subgenomic replicon (genotype 1a) in Huh-7 cells. Briefly: HCV replicon assay (luciferase reporter). Conditions: for EC50: Hepatitis C virus, subgenomic genotype 1a replicon, Huh-7 luc-ubi-neo, 48 h, diastereomer mixtures. It is filed as cell-based. The protocol: Anti-HCV activity and cytotoxicity of compounds disclosed herein were assayed following patent method (WO 2007/027248).
as §1
A human hepatoma cell line (Huh-7) containing replicating HCV subgenomic replicon with a luciferase reporter gene (luc-ubi-neo) was used to evaluate anti-HCV activity of the compounds. In this assay, level of luciferase signal correlates with the viral RNA replication directly. The HCV replicon-reporter cell line (NK/luc-ubi-neo) was cultured in DMEM medium supplemented with 10% fetal bovine serum and 0.5 mg/ml Geneticin (G418). Cells were maintained in a subconfluent state to ensure high levels of HCV replicon RNA synthesis.
To evaluate the antiviral activity of compounds, serial dilutions were prepared with concentrations ranging from 0.14 to 300 μM. Diluted compounds were transferred to a 96-well plate followed by the addition of replicon cells (6000 cells per well). Cells were incubated with the compounds for 48 h after which luciferase activity was measured. Reduction of luciferase signal reflected the decrease of HCV replicon RNA in the treated cells and used to determine the EC50 value (concentration which yielded a 50% reduction in luciferase activity).
as §2
A general note: Replicon systems follow genome replication, usually without infectious particles.

“Also recorded” adds a separate entry of the source.

Consider `Cc1ccccc1COP(=O)(NCc1ccccc1)OCC1OC(n2cc(F)c(=O)[nH]c2=O)CC1O` (centres unmarked) [FDURP], for which, in data set [1] (iv), the “Active metabolite FDUR-MP in the liver after administration” value is “detected in the liver”; the “Concentrations of related active drugs (FDUR, FDUR-MP, 5FU) compared with administration of FDUR” value is recorded as “significantly increased”; the “Exposure in plasma and liver compared with parent drug FDUR” value is given as “significantly greater”. In data set [1] (male, Sprague-Dawley, liver, 0.015 mmol/kg, monitored compound FDURP, iv), the Tmax was determined as 60 min. The compound further returned an AUC(0-inf) in data set [1] (male, Sprague-Dawley, plasma, 0.015 mmol/kg, monitored compound FDURP, iv) of 10400 ng·h/mL. Further, the half-life in data set [1] (male, Sprague-Dawley, plasma, 0.015 mmol/kg, monitored compound FDURP, iv, printed in Tmax column, read-out: plasma T½ (converted)) is 27 min. In data set [1] (monitored compound FDURP, iv), the “liver AUC(inf)” value is 1750 ng·h/mL and the “liver Cmax” value was 1573 ng/mL. In addition, the “Drug FDUR Concentration, Liver” value in data set [1] (sampling 1, iv 0.015 mmol/kg) was “BQL”. In addition, the “Drug FDUR Concentration, Liver” value in data set [1] (sampling 2, iv 0.015 mmol/kg) is “BQL”. The “Drug FDUR Concentration, Plasma” value in data set [1] (sampling 4, iv 0.015 mmol/kg) was “BQL”. The “Drug FDUR Concentration, Plasma” value in data set [1] (sampling 8, iv 0.015 mmol/kg) was “BQL”. The “Drug FDUR Concentration, Plasma” value in data set [1] (sampling 24, iv 0.015 mmol/kg) is “BQL”.
In data set [2], `COc1nc(N)nc2c1ncn2C1OC(COP(=O)(NCc2ccccc2)OCc2ccccc2C)C(O)C1(C)O` (centres unmarked) [DGX-111] returned a CC50 of 69 µM. In data set [3], the “anti-HCV activity (in words)” value is listed as “biologically much more potent” and the EC50 stood at 0.3 µM.
The matching figures for `Cc1ccccc1COP(=O)(NCc1ccccc1)OCC1OC(n2ccc(=O)[nH]c2=O)C(C)(F)C1O` (centres unmarked) [DGX-105]: > 100 µM, “biologically potent; also recorded: potent anti-HCV activity” and 1.9 µM.
Take `COc1ccc(COP(=O)(NCc2ccccc2)OCC2OC(n3ccc(=O)[nH]c3=O)C(C)(F)C2O)cc1F` (centres unmarked) [DGX-104]: the CC50 in data set [2] was > 100 µM. In data set [3], the “anti-HCV activity (in words)” value is “biologically potent; also recorded: potent anti-HCV activity” and the EC50 was 4.1 µM.
The matching figures for `COc1nc(N)nc2c1ncn2C1OC(CO)C(O)C1(C)O` (centres unmarked) [DGX-110]: > 100 µM, “biologically active” and 0.9 µM.
For the compound `CC1(F)C(O)C(CO)OC1n1ccc(=O)[nH]c1=O` (centres unmarked) [DGX-103], the CC50 in data set [2] is > 100 µM. For the same compound, in data set [3], the “anti-HCV activity (in words)” value is “biologically inactive” and the EC50 is > 100 µM.
For `O=c1[nH]c(=O)n([C@H]2C[C@H](O)[C@@H](CO)O2)cc1F` [FDUR, 5-fluoro-2′-deoxyuridine, reference compound], the “Active metabolite FDUR-MP in the liver after administration” value in data set [1] (iv) is given as “not”. The “liver Cmax” value is recorded as “BQL” in data set [1] (monitored compound 5FU, iv); “BQL” in data set [1] (monitored compound FDUR, iv); “BQL” in data set [1] (monitored compound FDUR-MP, iv). Also, the “Drug FDUR Concentration, Liver” value in data set [1] (sampling 1, iv 0.015 mmol/kg) is recorded as “BQL”; in data set [1] (sampling 2, iv 0.015 mmol/kg) it was “BQL”; in data set [1] (sampling 4, iv 0.015 mmol/kg), “BQL”; in data set [1] (sampling 8, iv 0.015 mmol/kg) it was “BQL”; in data set [1] (sampling 24, iv 0.015 mmol/kg), “BQL”. Besides, the “Drug FDUR Concentration, Plasma” value in data set [1] (sampling 2, iv 0.015 mmol/kg) is on record as “BQL”; in data set [1] (sampling 4, iv 0.015 mmol/kg), “BQL”; in data set [1] (sampling 8, iv 0.015 mmol/kg), “BQL”; in data set [1] (sampling 24, iv 0.015 mmol/kg) it was “BQL”.
As to `CC1(F)C(O)C(COP(=O)(NCc2ccccc2)OCc2ccccc2)OC1n1ccc(=O)[nH]c1=O` (centres unmarked) [DGX-106], the CC50 in data set [2] was > 100 µM. For the same compound, in data set [3], the “anti-HCV activity (in words)” value is “did not show any anti-HCV activity” and the EC50 was > 100 µM.
